For series [1], the system named is K562-TAX. Kind of series: Cytostatic/cytotoxic MTT assay, K562-TAX. It counts as cell-based. The conditions noted are these: Homo sapiens, 72 h, read-out: MTT, IC50 K562-TAX. The source says:
Unless otherwise stated, all cells were purchased from the […] (ATCC). The CCRF-CEM line is derived from T lymphoblastic leukemia, evincing high chemosenzitivity, K562 represent cells from a […] patient sample with bcr-abl translocation, HCT116 is colorectal tumor cell line and its p53 gene knock-down counterpart (HCT116p53−/−, Horizon Discovery, UK) is a model of human cancers with p53 inactivation frequently associated with poor prognosis, A549 cell line is lung adenocarcinoma. The daunorubicin resistant subline of CCRF-CEM cells (CEM-DNR bulk) and paclitaxel resistant subline K562-TAX were selected in our laboratory by cultivation of maternal cell lines in increasing concentrations of daunorubicine or paclitaxel, respectively. The CEM-DNR cells overexpress mrp-1 and mdr-1 genes, while K562-TAX cells overexpress mdr-1 only. Both proteins belong to the family of ABC transporters and are involved in the primary and/or acquired multidrug resistance phenomenon (ref.: Gottesman, M. M.; Fojo, T.; Bates, S. E. Multidrug resistance in cancer: role of ATP-dependent transporters. Nat. Rev. Cancer. 2002, 2, 48-58. (b) Noskova, V.; Dzubak, P.; Kuzmina, G.; Ludkova, A.; Stehlik, D.; Trojanec, R.; Janostakova, A.; Korinkova, G.; Mihal, V.; Hajduch, M. In vitro chemoresistance profile and expression/function of MDR associated proteins in resistant cell lines derived from CCRF-CEM, K562, A549 and MDA MB 231 parental cells. Neoplasma 2002, 49, 418-425). Non-malignant MRC-5 and BJ cells, derived from normal human fibroblasts, were used as controls. The cells were maintained in Nunc/Corning 80 cm^2 plastic tissue culture flasks and cultured in cell culture medium (DMEM/RPMI 1640 with 5 g/L glucose, 2 mM glutamine, 100 U/mL penicillin, 100 µg/mL streptomycin, 10% fetal calf serum, and NaHCO3). Cell suspensions were prepared and diluted according to the particular cell type and the expected target cell density (25,000-30,000 cells/well based on cell growth characteristics). Cells were added by pipette (80 L) into 96-well microtiter plates. Inoculates were allowed a pre-incubation period of 24 h at 37° C. and 5% CO2 for stabilization. Four-fold dilutions, in 20-L aliquots, of the intended test concentration were added to the microtiter plate walls at time zero. All test compound concentrations were examined in duplicate. Incubation of the cells with the test compounds lasted for 72 h at 37° C., in a 5% CO2 atmosphere at 100% humidity. At the end of the incubation period, the cells were assayed using MTT. Aliquots (10 L) of the MTT stock solution (5 mg/ml) were pipetted into each well and incubated for another 1-4 h. After this incubation period the formazan produced was dissolved by addition of 100 µL/well of 10% aq SDS (pH 5.5), followed by a further incubation at 37° C. overnight. The optical density was measured at 540 nm. The IC50 value, the drug concentration inhibiting the cell growth by 50%, was calculated from appropriate dose-response curves.
In vitro cytotoxic/cytostatic activity final nucleosides 1-5 was initially evaluated against […] cell lines derived from human solid tumors including lung (A549 cells) and colon (HCT116 and HCT116p53−/−) carcinomas, as well as leukemia cell lines (CCRF-CEM, CEM-DNR, K562 and K562-TAX) and, for comparison, non-malignant BJ and MRC-5 fibroblasts. Concentrations inhibiting the cell growth by 50% (IC50) were determined using a quantitative metabolic staining with 3-(4,5-dimethylthiazol-2-yl)-2,5-diphenyltetrazolium bromide (MTT) (ref.: Denizot, F.; Lang, R. Rapid colorimetric assay for cell growth and survival: Modifications to the tetrazolium dye procedure giving improved sensitivity and reliability. J. Immunol. Meth. 1986, 89, 271-277) following a 3-day treatment.
Multidrug resistance is a major therapeutic problem in cancer chemotherapy. […]

Series [2] deals with CCRF-CEM cells. Kind of series: Cell cycle and apoptosis analysis (flow cytometry, propidium iodide). The conditions noted are these: CCRF-CEM cells treated at IC50 for 24 hrs. The format is cell-based, human. As to the method: After the incubation period, cells were then washed with cold 1×PBS and fixed in 70% ethanol added dropwise and stored overnight at −20° C. Afterwards, cells were washed in hypotonic citrate buffer, treated with RNase (50 μg/mL) and stained with propidium iodide. Flow cytometry using a 488 nm single-beam laser (Becton Dickinson) was used for measurement. The data were analyzed according to the program ModFitLT (Verity), and apoptosis was expressed as the percentage of cells with a propidium content lower than that in the G0/G1 population. Half of the sample was used for pH3^ser10 antibody (Sigma) labeling and subsequent flow cytometry analysis of mitotic cells.
However, the major mechanism of action was inhibition of RNA synthesis (BrU incorporation). […] Cell cycle alterations (G1, S, G2/M) were not observed in treated cells under specified experimental conditions.
(A flow cytometer gives signals particle by particle.)

The subject of series [3] is Huh-7 cells harboring replicon 1B. Description: Cytotoxicity in replicon 1B cells. The conditions noted are these: HCV subtype 1B replicon. The format is cell-based. As to the method: (§1) Compounds were also tested in Huh-7 cells harboring sub-genomic reporter replicons derived from HCV subtypes 1B and 2A (ref.: Stuyver, L. J.; Whitaker, T.; McBrayer, T. R.; Hernandez-Santiago, B. I.; Lostia, S.; Tharnish, P. M.; Ramesh, M.; Chu, C. K.; Jordan, R.; Shi, J. X.; Rachakonda, S.; Watanabe, K. A.; Otto, M. J.; Schinazi, R. F. Antimicrob. Agents Chemother. 2003, 47, 244-254).
(In general: A replicon is a self-replicating genome or part of one, used to study replication in cells.)

Series [4] has as its system HepG2. Description: XTT cytotoxicity assay, HepG2. The format is cell-based. Particulars: Homo sapiens, read-out: XTT, IC50 HepG2. As to the method: HL-60, Hela S3 and HepG2 cell lines (ATCC) were grown in RPMI-1640 or DMEM medium supplemented with 10% fetal calf serum, […] of streptomycin, 200 U/mL of penicillin G and 4 mM glutamine in a humidified atmosphere containing 5% CO2 at 37° C. Sensitivity of these cell lines to the synthesized compounds was assessed with the use of XTT cell proliferation kit II (Roche Diagnostics GmbH, Mannheim, Germany) according to the manufacturer's instructions. Briefly, cells were seeded in a 96-well plate at a density of 10,000 cells per well (90 μL). After 24 h, 10 μL of the tested compounds were added to the culture media at desired concentration range and incubated for 72 h. After that 50 μL of the XTT solution was added (1 mg/mL XTT+0.383 mg/mL N-methyl dibenzopyrazine methyl sulfate). The absorbance was recorded at 495 nm following a 2 h-incubation with the dye. IC50 values were determined by non-linear regression method using GraphPad Prism version 5.00 for Windows (GraphPad Software, La Jolla, Calif., USA).

Series [5] has as its system Huh-7 cells harboring replicon 2A. Kind of series: Cytotoxicity in replicon 2A cells. It counts as cell-based. The conditions noted are these: HCV subtype 2A replicon. The protocol:
as §1

From patent publication US9586986B2, “Substituted 7-deazapurine ribonucleosides for therapeutic uses” (Institute of Organic Chemistry and Biochemistry ASCR, v.v.i., priority 2014, dated 2017) come the findings set out here.

What is called IC50 is the concentration that gives 50% inhibition. As usually defined, the CC50 is the concentration at which the toxic effect on the cells reaches its halfway point. Read a low CC50 as harm at low concentration.

Where two headings read alike, the source gives them in different places.

Take `COc1ncnc2c1c(-c1ccco1)cn2[C@@H]1O[C@H](CO)[C@@H](O)[C@H]1O` [Compound 1a, 5-(Furan-2-yl)-4-methoxy-7-(β-D-ribofuranosyl)-7H-pyrrolo[2,3-d]pyrimidine]: in series [1] (paclitaxel resistant subline), the 50% inhibitory concentration (IC50) is 380 nM. Besides, in series [2], the “G1, % of total cell populations” value is 42.8%; the “G2/M, % of total cell populations” value was determined as 12.9%; the “S, % of total cell populations” value is reported as 44.3%; the “sub-G1 (apoptosis), % of total cell populations” value (shortened to “sub-G1 (apoptosis), %”) was 6.8%. The compound further had a 50% cytotoxic concentration (CC50) in series [3] above 44000 nM. Also, the IC50 in series [4] (HepG2, 72 h incubation) is 300 nM. In series [5], the CC50 is above 44000 nM.

As for `COc1ncnc2c1c(I)cn2[C@@H]1O[C@H](CO)[C@@H](O)[C@H]1O` [Compound 1h, 5-iodo-4-methoxy-7-(β-D-ribofuranosyl)-7H-pyrrolo[2,3-d]pyrimidine, reference compound], in series [1] (paclitaxel resistant subline), the IC50 came to 14800 nM. Moreover, in series [2], the “G1, % of total cell populations” value was 37.9%; the “G2/M, % of total cell populations” value came to 12.9%; the “S, % of total cell populations” value was found to be 49.2%; the “sub-G1 (apoptosis), %” value is 6%. This compound also returned a CC50 in series [3] above 44000 nM. Also, in series [4] (HepG2, 72 h incubation), the 50% inhibitory concentration (IC50) is above 20000 nM. Moreover, in series [5], the cytotoxic concentration (CC50) is above 44000 nM.

In the case of `CSc1ncnc2c1c(-c1ccco1)cn2[C@@H]1O[C@H](CO)[C@@H](O)[C@H]1O` [Compound 2a, 5-(Furan-2-yl)-4-methylsulfanyl-7-(β-D-ribofuranosyl)-7H-pyrrolo[2,3-d]pyrimidine], the IC50 in series [1] (paclitaxel resistant subline) was 210 nM. In series [2], the “G1, % of total cell populations” value worked out at 43.5%; the “G2/M, % of total cell populations” value is on record as 11.3%; the “S, % of total cell populations” value is given as 45.3%; the “sub-G1 (apoptosis), %” value was determined as 7.9%. The CC50 in series [3] was 38600 nM. Further, the IC50 in series [4] (HepG2, 72 h incubation) turned out to be 220 nM. This compound showed a half-maximal cytotoxic concentration (CC50) in series [5] above 44000 nM.

As to `CNc1ncnc2c1c(-c1ccco1)cn2[C@@H]1O[C@H](CO)[C@@H](O)[C@H]1O` [Compound 3a, 5-(Furan-2-yl)-4-methylamino-7-(β-D-ribofuranosyl)-7H-pyrrolo[2,3-d]pyrimidine], the half-inhibitory concentration (IC50) in series [1] (paclitaxel resistant subline) is 15100 nM. Moreover, in series [2], the “G1, % of total cell populations” value came to 42.2%; the “G2/M, % of total cell populations” value worked out at 12.1%; the “S, % of total cell populations” value is 45.8%; the “sub-G1 (apoptosis), %” value was 10.6%. The CC50 in series [3] is above 44000 nM. Also, the IC50 in series [4] (HepG2, 72 h incubation) was determined as 850 nM. Moreover, the CC50 in series [5] was above 44000 nM.

`CN(C)c1ncnc2c1c(-c1ccco1)cn2[C@@H]1O[C@H](CO)[C@@H](O)[C@H]1O` [Compound 4a, 4-Dimethylamino-5-(furan-2-yl)-7-(β-D-ribofuranosyl)-7H-pyrrolo[2,3-d]pyrimidine]: the IC50 in series [1] (paclitaxel resistant subline) was 1280 nM. In series [2], the “G1, % of total cell populations” value amounted to 31%; the “G2/M, % of total cell populations” value is 15.4%; the “S, % of total cell populations” value is on record as 53.6%; the “sub-G1 (apoptosis), %” value turned out to be 10.2%. For the same compound, the cytotoxic concentration (CC50) in series [3] is above 44000 nM. Moreover, in series [4] (HepG2, 72 h incubation), the half-inhibitory concentration (IC50) is above 15000 nM. For the same compound, in series [5], the CC50 was above 44000 nM.

With `CN(C)c1ncnc2c1c(-c1ccsc1)cn2[C@@H]1O[C@H](CO)[C@@H](O)[C@H]1O` [Compound 4d, 4-Dimethylamino-7-(β-D-ribofuranosyl)-5-(thiophen-3-yl)-7H-pyrrolo[2,3-d]pyrimidine], the half-inhibitory concentration (IC50) in series [1] (paclitaxel resistant subline) was above 20000 nM. In series [2], the “G1, % of total cell populations” value was 41.4%; the “G2/M, % of total cell populations” value is 11.2%; the “S, % of total cell populations” value amounted to 47.4%; the “sub-G1 (apoptosis), %” value is reported as 6.8%. In addition, the 50% cytotoxic concentration (CC50) in series [3] was above 44000 nM. The half-inhibitory concentration (IC50) in series [4] (HepG2, 72 h incubation) is above 20000 nM. Besides, in series [5], the CC50 was above 44000 nM.

For the compound `C#Cc1cn([C@@H]2O[C@H](CO)[C@@H](O)[C@H]2O)c2ncnc(N(C)C)c12` [Compound 4g, 4-Dimethylamino-5-ethynyl-7-(β-D-ribofuranosyl)-7H-pyrrolo[2,3-d]pyrimidine], the IC50 in series [1] (paclitaxel resistant subline) turned out to be 260 nM. Also, in series [2], the “G1, % of total cell populations” value is listed as 38.5%; the “G2/M, % of total cell populations” value was 14.7%; the “S, % of total cell populations” value came to 46.8%; the “sub-G1 (apoptosis), %” value turned out to be 8.9%. The compound also showed a CC50 in series [3] above 44000 nM. The IC50 in series [4] (HepG2, 72 h incubation) was 1320 nM. In addition, the CC50 in series [5] was above 44000 nM.

Consider `CSc1ncnc2c1ccn2[C@@H]1O[C@H](CO)[C@@H](O)[C@H]1O` [RC2, reference compound], for which the IC50 is 100 nM in series [1] and above 20000 nM in series [4] (HepG2, 72 h). The half-maximal cytotoxic concentration (CC50) in series [3] and in series [5] was above 44000 nM throughout.

Turning to `CNc1ncnc2c1ccn2[C@@H]1O[C@H](CO)[C@@H](O)[C@H]1O` [RC3, reference compound], the IC50 in series [1] (paclitaxel resistant subline) was 920 nM; in series [4] (HepG2, 72 h incubation), above 20000 nM. Also, the CC50 in series [3] and in series [5] was above 44000 nM in each case.

`CN(C)c1ncnc2c1ccn2[C@@H]1O[C@H](CO)[C@@H](O)[C@H]1O` [RC4, reference compound]: the IC50 worked out at 890 nM in series [1] (paclitaxel resistant subline) and 1810 nM in series [4] (HepG2, 72 h incubation). In addition, the 50% cytotoxic concentration (CC50) in series [3] and in series [5] was above 44000 nM in each case.

Consider `Cc1ncnc2c1ccn2[C@@H]1O[C@H](CO)[C@@H](O)[C@H]1O` [RC5, 4-Methyl-7-(β-D-ribofuranosyl)-7H-pyrrolo[2,3-d]pyrimidine, reference compound], for which the concentration for half-maximal inhibition (IC50) in series [1] stood at 50 nM; in series [4] (HepG2, 72 h), 60 nM. Also, the CC50 in series [3] was determined as 230 nM; in series [5] it was 120 nM.
